According to US11661431B2, “Thienopyrrole compounds” (Gilead Sciences, Inc., priority 2021, dated 2023):

Key:
[1] = biological target: TLR8 (Homo sapiens (Human), UniProt Q9NR97); experiment: TLR8 human peripheral blood mononuclear cell (PBMC) cell-based assay (Compound A as agonist; TNFα and IL12p40 readout); conditions: human PBMCs, TLR8 agonist Compound A at 800 nM, 6 hours, antagonist potency; read-out: TLR-8 EC50
[2] = biological target: TLR7 (Homo sapiens (Human), UniProt Q9NYK1); experiment: TLR7 human peripheral blood mononuclear cell (PBMC) cell-based assay (GS-986 as agonist; IL-6 and IFNα readout); conditions: human PBMCs, TLR7 agonist GS-986 at 400 nM, 6 hours, antagonist potency; read-out: TLR-7 EC50
Chain of TLR7 (Q9NYK1 27-1049): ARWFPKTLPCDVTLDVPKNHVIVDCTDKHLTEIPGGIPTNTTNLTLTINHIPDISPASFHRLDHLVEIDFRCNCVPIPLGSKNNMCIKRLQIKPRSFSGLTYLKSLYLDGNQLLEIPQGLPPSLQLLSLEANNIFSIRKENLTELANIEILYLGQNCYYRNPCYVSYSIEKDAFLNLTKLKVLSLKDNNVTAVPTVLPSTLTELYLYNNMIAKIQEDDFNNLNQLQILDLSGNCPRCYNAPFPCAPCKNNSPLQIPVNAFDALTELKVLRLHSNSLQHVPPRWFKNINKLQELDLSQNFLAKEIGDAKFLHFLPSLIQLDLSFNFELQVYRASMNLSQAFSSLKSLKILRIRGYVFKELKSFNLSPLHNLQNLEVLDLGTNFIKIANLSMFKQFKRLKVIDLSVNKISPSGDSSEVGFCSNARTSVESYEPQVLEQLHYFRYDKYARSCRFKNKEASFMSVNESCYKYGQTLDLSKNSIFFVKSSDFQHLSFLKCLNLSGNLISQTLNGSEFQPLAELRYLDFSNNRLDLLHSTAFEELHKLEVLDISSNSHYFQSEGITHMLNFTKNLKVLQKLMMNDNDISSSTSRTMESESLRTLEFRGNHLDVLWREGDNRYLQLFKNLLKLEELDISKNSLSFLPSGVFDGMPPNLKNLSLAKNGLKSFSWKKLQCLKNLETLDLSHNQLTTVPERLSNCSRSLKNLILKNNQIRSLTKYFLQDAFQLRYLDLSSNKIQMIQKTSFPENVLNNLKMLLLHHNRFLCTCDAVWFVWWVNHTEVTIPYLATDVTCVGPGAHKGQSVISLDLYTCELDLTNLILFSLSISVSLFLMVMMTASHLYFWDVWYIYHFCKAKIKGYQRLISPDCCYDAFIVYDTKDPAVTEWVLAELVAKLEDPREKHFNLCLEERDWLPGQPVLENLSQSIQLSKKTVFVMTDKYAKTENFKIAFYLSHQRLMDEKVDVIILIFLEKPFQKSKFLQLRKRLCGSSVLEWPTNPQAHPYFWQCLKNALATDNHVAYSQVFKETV
Outline: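 Human PBMCs (100,000 cells/well) preincubated 1 h at 37 °C with antagonist in 10-point dose response, then stimulated with TLR7 agonist for a further 6 h at 37 °C, 5% CO2. Supernatant IL-6 and IFNα measured by electrochemiluminescence immunoassay.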

Chain of TLR8 (Q9NR97 27-1041): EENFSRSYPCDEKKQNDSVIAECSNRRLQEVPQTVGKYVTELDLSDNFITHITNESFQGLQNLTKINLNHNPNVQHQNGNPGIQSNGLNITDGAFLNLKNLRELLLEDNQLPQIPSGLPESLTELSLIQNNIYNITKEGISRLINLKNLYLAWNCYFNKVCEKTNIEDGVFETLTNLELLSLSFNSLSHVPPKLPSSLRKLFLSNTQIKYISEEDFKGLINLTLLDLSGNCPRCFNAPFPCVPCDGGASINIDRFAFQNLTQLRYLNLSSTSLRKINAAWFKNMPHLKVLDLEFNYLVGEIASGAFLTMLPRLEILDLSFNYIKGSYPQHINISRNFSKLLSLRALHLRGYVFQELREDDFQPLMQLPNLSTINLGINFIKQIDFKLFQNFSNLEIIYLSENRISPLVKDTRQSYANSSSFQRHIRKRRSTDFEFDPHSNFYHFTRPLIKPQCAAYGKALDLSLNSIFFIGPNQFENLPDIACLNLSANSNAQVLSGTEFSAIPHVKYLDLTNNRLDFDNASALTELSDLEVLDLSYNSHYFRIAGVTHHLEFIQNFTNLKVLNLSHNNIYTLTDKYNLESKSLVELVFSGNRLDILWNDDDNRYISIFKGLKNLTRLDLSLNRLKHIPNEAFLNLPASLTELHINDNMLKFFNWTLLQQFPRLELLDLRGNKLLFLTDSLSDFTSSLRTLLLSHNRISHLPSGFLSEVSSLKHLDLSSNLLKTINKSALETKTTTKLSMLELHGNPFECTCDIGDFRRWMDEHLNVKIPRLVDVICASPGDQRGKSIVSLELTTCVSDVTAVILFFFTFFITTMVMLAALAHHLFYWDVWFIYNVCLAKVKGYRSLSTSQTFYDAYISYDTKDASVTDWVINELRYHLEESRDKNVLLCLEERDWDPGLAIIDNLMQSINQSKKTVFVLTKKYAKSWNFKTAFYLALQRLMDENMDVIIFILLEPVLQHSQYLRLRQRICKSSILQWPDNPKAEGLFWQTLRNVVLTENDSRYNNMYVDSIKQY

EC50 [1] | EC50 [2] | SMILES
12 nM | 0.28 nM | Cc1c(-c2ccc(N3CCNCC3)nc2)sc2[nH]c(-c3cc(C)c4ncnn4c3)c(C(C)C)c12 [Example 20, 4-isopropyl-3-methyl-5-(8-methyl-[1,2,4]triazolo[1,5-a]pyridin-6-yl)-2-(6-(piperazin-1-yl)pyridin-3-yl)-6H-thieno[2,3-b]pyrrole]
5.06 nM | 0.6 nM | Cc1c(C2CCC3(CCN(CC(N)=O)CC3)C2)sc2[nH]c(-c3cc(C)c4ncnn4c3)c(C(C)C)c12 (stereo not drawn) [Example 133]
0.07 nM | 0.29 nM | Cc1c(-c2[nH]c3sc([C@@H]4C[C@@H]5C[C@H]4CN5C4CC5(C4)CS(=O)(=O)C5)c(C)c3c2C(C)C)cn2ncnc2c1C [Example 169]
45.1 nM | 0.18 nM | CCc1c(C2CCN(CC(N)=O)CC2)sc2[nH]c(-c3cc(C)c4ncnn4c3)c(C(C)C)c12 [Example 206]
0.85 nM | 0.44 nM | Cc1c(-c2[nH]c3sc([C@@H]4C[C@@H]5C[C@H]4CN5Cc4ccc(Br)cc4)c(C)c3c2C(C)C)cn2ncnc2c1C [Example 154]
6.23 nM | 4.2 nM | Cc1c(CCC2CCN(CC(N)=O)CC2)sc2[nH]c(-c3cc(C)c4ncnn4c3)c(C(C)C)c12 [Example 203]
2.49 nM | 0.1 nM | Cc1c(-c2[nH]c3sc(C4CCN(C(=O)[C@H]5CN6CCCC6CO5)CC4)c(C)c3c2C(C)C)cn2ncnc2c1C (stereo partly drawn) [Example 104]
1.74 nM | 0.24 nM | Cc1c(C2CC3(CNC3)C2)sc2[nH]c(-c3cc(C)c4ncnn4c3)c(C(C)C)c12 [Example 58, 4-isopropyl-3-methyl-5-(8-methyl-[1,2,4]triazolo[1,5-a]pyridin-6-yl)-2-(2-azaspiro[3.3]heptan-6-yl)-6H-thieno[2,3-b]pyrrole]
3.4 nM | 4.47 nM | Cc1c(-c2[nH]c3sc([C@H]4C[C@@H]5CC[C@H]4CN5CCS(C)(=O)=O)c(C)c3c2C(C)C)cn2ncnc2c1C (single isomer, unassigned) [Example 214]
0.24 nM | 0.05 nM | Cc1c(-c2[nH]c3sc(C4CC5(CNCCO5)C4)c(C)c3c2C(C)C)cn2ncnc2c1C (stereo not drawn) [Example 76, 2-(5-(7,8-dimethyl-[1,2,4]triazolo[1,5-a]pyridin-6-yl)-4-isopropyl-3-methyl-6H-thieno[2,3-b]pyrrol-2-yl)-5-oxa-8-azaspiro[3.5]nonane]
18.6 nM | 1.17 nM | Cc1c(C2CCCN(CC(N)=O)CC2)sc2[nH]c(-c3cc(C)c4ncnn4c3)c(C(C)C)c12 (single isomer, unassigned) [Example 263, 2-(4-(4-isopropyl-3-methyl-5-(8-methyl-[1,2,4]triazolo[1,5-a]pyridin-6-yl)-6H-thieno[2,3-b]pyrrol-2-yl)azepan-1-yl)acetamide]
7.29 nM | 0.13 nM | Cc1c(C2CCCN(CC(N)=O)CC2)sc2[nH]c(-c3cc(C)c4ncnn4c3)c(C(C)C)c12 (stereo not drawn) [Example 161, 2-(4-(4-isopropyl-3-methyl-5-(8-methyl-[1,2,4]triazolo[1,5-a]pyridin-6-yl)-6H-thieno[2,3-b]pyrrol-2-yl)azepan-1-yl)acetamide]
5.96 nM | 0.43 nM | Cc1c(-c2[nH]c3sc(C4CCN(C(=O)[C@@H]5CCCN5)CC4)c(C)c3c2C(C)C)cn2ncnc2c1C [Example 99]
0.09 nM | < 0.05 nM | Cc1c(-c2[nH]c3sc([C@@H]4C[C@@H]5C[C@H]4CN5Cc4c[nH]nn4)c(C)c3c2C(C)C)cn2ncnc2c1C [Example 174]
0.48 nM | 1.2 nM | Cc1c(-c2[nH]c3sc([C@@H]4C[C@@H]5C[C@H]4CN5CCC#N)c(C)c3c2C(C)C)cn2ncnc2c1C [Example 166]
3.59 nM | 0.34 nM | Cc1cc(-c2[nH]c3sc(C4CCNCC4)c(C)c3c2C(C)C)cn(C)c1=O [Example 250]
4.91 nM | 0.32 nM | Cc1c(-c2[nH]c3sc(C4CCN(C(=O)[C@H]5C[C@@H](C(F)(F)F)CCN5)CC4)c(C)c3c2C(C)C)cn2ncnc2c1C [Example 284]
26.1 nM | 1.27 nM | Cc1c(-c2ccc3[nH]c([C@H]4N[C@@H]5CC[C@H]4C5)nc3c2)sc2[nH]c(-c3cc(C)c4ncnn4c3)c(C(C)C)c12 [Example 22]
19.3 nM | 0.65 nM | Cc1c(-c2[nH]c3sc(C4CCN(C5CCNC5=O)CC4)c(C)c3c2C(C)C)cn2ncnc2c1C (single isomer, unassigned) [Example 290, 3-[4-[5-(7,8-dimethyl-[1,2,4]triazolo[1,5-a]pyridin-6-yl)-4-isopropyl-3-methyl-6H-thieno[2,3-b]pyrrol-2-yl]-1-piperidyl]pyrrolidin-2-one]
31.5 nM | 0.94 nM | Cc1c(C2CCN(C(=O)[C@@H]3COC(C)(C)CN3)CC2)sc2[nH]c(-c3cc(C)c4ncnn4c3)c(C(C)C)c12 [Example 159]
8.93 nM | 0.56 nM | Cc1cc(-c2[nH]c3sc(C(=O)N(C)C4CCNCC4)cc3c2C(C)C)cn2ncnc12 [Example 1, 4-isopropyl-N-methyl-5-(8-methyl-[1,2,4]triazolo[1,5-a]pyridin-6-yl)-N-(piperidin-4-yl)-6H-thieno[2,3-b]pyrrole-2-carboxamide]

EC50 [1] | EC50 [2] | SMILES
1.12 nM | 2.08 nM | Cc1c(-c2[nH]c3sc(C4CC5(C4)CN(C(=O)[C@H]4COCCN4)C5)c(C)c3c2C(C)C)cn2ncnc2c1C [Example 52]
6.79 nM | < 0.05 nM | Cc1c(-c2[nH]c3sc(C4CCN(C(=O)C56COC(CN5)C6)CC4)c(C)c3c2C(C)C)cn2ncnc2c1C (stereo not drawn) [Example 107]
0.38 nM | 0.3 nM | Cc1c(-c2[nH]c3sc([C@@H]4C[C@@H]5C[C@H]4CN5CC(=O)N(C)C)c(C)c3c2C(C)C)cn2ncnc2c1C [Example 163]
> 1000 nM | 274 nM | Cc1c(C2CC2C(=O)N2CCNCC2)sc2[nH]c(-c3cc(C)c4ncnn4c3)c(C(C)C)c12 (stereo not drawn) [Example 192]
0.05 nM | 3.15 nM | Cc1c(-c2[nH]c3sc(C4CC5(C4)CN(CC(N)=O)C5)c(C)c3c2C(C)C)cn2ncnc2c1C [Example 31]
6.78 nM | 0.45 nM | Cc1c(-c2[nH]c3sc([C@H]4C[C@@H]5CC[C@H]4CN5CC(=O)N(C)C)c(C)c3c2C(C)C)cn2ncnc2c1C (single isomer, unassigned) [Example 212]
129 nM | 3.2 nM | Cc1c(-c2[nH]c3sc(C4CCN(C(=O)[C@H]5CO[C@@H](C(F)(F)F)CN5)CC4)c(C)c3c2C(C)C)cn2ncnc2c1C [Example 285]
84.6 nM | 21.5 nM | Cc1cc(-c2[nH]c3sc(S(=O)(=O)N4CCNCC4)cc3c2C(C)C)cn2ncnc12 [Example 6, 4-Isopropyl-5-(8-methyl-[1,2,4]triazolo[1,5-a]pyridin-6-yl)-2-(piperazin-1-ylsulfonyl)-6H-thieno[2,3-b]pyrrole]
9.94 nM | 0.25 nM | Cc1c(C2CCC(C(=O)N3CCNCC3)CC2)sc2[nH]c(-c3cc(C)c4ncnn4c3)c(C(C)C)c12 (stereo not drawn) [Example 310]
2.95 nM | 0.11 nM | Cc1c(C2CCC3(CC2)CN(CC(N)=O)C3)sc2[nH]c(-c3cc(C)c4ncnn4c3)c(C(C)C)c12 [Example 25]
20.4 nM | 0.91 nM | Cc1c(-c2[nH]c3sc(C45CCN(CC(N)=O)CC4C5)c(C)c3c2C(C)C)cn2ncnc2c1C (single isomer, unassigned) [Example 103, 2-[6-[5-(7,8-dimethyl-[1,2,4]triazolo[1,5-a]pyridin-6-yl)-4-isopropyl-3-methyl-6H-thieno[2,3-b]pyrrol-2-yl]-3-azabicyclo[4.1.0]heptan-3-yl]acetamide]
4.2 nM | 0.05 nM | Cc1c(C2C[C@H]3CNC[C@H]3C2)sc2[nH]c(-c3cc(C)c4ncnn4c3)c(C(C)C)c12 (single isomer, unassigned) [Example 69]
4.54 nM | < 0.05 nM | Cc1c(C2CCCN(CC(N)=O)CC2)sc2[nH]c(-c3cc(C)c4ncnn4c3)c(C(C)C)c12 (single isomer, unassigned) [Example 262, 2-(4-(4-isopropyl-3-methyl-5-(8-methyl-[1,2,4]triazolo[1,5-a]pyridin-6-yl)-6H-thieno[2,3-b]pyrrol-2-yl)azepan-1-yl)acetamide]
20.5 nM | 1.67 nM | Cc1c(-c2[nH]c3sc(C4CCC5(CC4)CNCCO5)c(C)c3c2C(C)C)cn2ncnc2c1C (single isomer, unassigned) [Example 293, 9-(5-(7,8-dimethyl-[1,2,4]triazolo[1,5-a]pyridin-6-yl)-4 isopropyl-3-methyl-6H-thieno[2,3-b]pyrrol-2-yl)-1-oxa-4-azaspiro[5.5]undecane]
14.1 nM | 0.24 nM | Cc1c(C2CCN(C(=O)[C@@H]3CNCCO3)CC2)sc2[nH]c(-c3cc(C)c4ncnn4c3)c(C(C)C)c12 [Example 47]
10.9 nM | 2.57 nM | Cc1c(-c2[nH]c3sc(C4CCN(C(=O)[C@@H]5C[C@@H]6OCC[C@@H]6N5)CC4)c(C)c3c2C(C)C)cn2ncnc2c1C [Example 143]
2.12 nM | 0.05 nM | Cc1c(C23CCNCC2C3)sc2[nH]c(-c3cc(C)c4ncnn4c3)c(C(C)C)c12 (stereo not drawn) [Example 195]
14.3 nM | 2.47 nM | Cc1c(C2CCN(CC3(C)COC3)CC2)sc2[nH]c(-c3cc(C)c4ncnn4c3)c(C(C)C)c12 [Example 11]
13.1 nM | 0.37 nM | CO[C@H]1CN[C@@H](C(=O)N2CCC(c3sc4[nH]c(-c5cc(C)c6ncnn6c5)c(C(C)C)c4c3C)CC2)C1 [Example 44]
20.1 nM | 0.06 nM | CCc1c(C2CCNCC2)sc2[nH]c(-c3cc(C)c4ncnn4c3)c(C(C)C)c12 [Example 277]
2.86 nM | 0.42 nM | Cc1c(-c2[nH]c3sc([C@@H]4C[C@@H]5C[C@H]4CN5Cc4n[nH]c(=O)[nH]4)c(C)c3c2C(C)C)cn2ncnc2c1C [Example 152]
